# In ChEMBL document CHEMBL2074110, “Characterization, cDNA cloning, and functional expression of mouse ileal sodium-dependent bile acid transporter” (J Biochem, 1999):
# Experiments:
# Assay type in all cases: functional, cell-based
# Details in all cases: ileocyte
# [1] = target: T1, Ileal sodium/bile acid cotransporter (Mus musculus, UniProt P70172); experiment: TP_TRANSPORTER: inhibition of Taurocholate uptake (Taurocholate: 0.72 uM, CDCA: a 100-fold excess) in isolated mouse ileocytes
# T1 sequence (P70172 whole entry): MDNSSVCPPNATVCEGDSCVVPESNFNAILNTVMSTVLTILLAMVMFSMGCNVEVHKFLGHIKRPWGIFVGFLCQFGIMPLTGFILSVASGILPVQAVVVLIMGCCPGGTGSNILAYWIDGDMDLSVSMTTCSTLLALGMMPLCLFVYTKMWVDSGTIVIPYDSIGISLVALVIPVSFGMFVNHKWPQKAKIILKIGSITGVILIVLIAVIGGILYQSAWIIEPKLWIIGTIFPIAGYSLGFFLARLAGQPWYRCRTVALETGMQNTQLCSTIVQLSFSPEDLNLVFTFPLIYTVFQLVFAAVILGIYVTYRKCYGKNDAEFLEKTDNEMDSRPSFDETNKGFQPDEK
# [2] = target: T1, Ileal sodium/bile acid cotransporter; experiment: TP_TRANSPORTER: inhibition of Taurocholate uptake (Taurocholate: 0.72 uM, Deoxycholate: a 100-fold excess) in isolated mouse ileocytes
# [3] = target: T1, Ileal sodium/bile acid cotransporter; experiment: TP_TRANSPORTER: inhibition of Taurocholate uptake (Taurocholate: 0.72 uM, GC: a 100-fold excess) in isolated mouse ileocytes
# [4] = target: T1, Ileal sodium/bile acid cotransporter; experiment: TP_TRANSPORTER: inhibition of Taurocholate uptake (Taurocholate: 0.72 uM, Lithocholate: a 100-fold excess) in isolated mouse ileocytes
smiles,measurement,setting,value
C[C@H](CCC(=O)O)[C@H]1CC[C@H]2[C@@H]3[C@H](O)C[C@@H]4C[C@H](O)CC[C@]4(C)[C@H]3CC[C@]12C [CHENODIOL],Activity,[1],inhibitor [+]
C[C@H](CCC(=O)O)[C@H]1CC[C@H]2[C@@H]3CC[C@@H]4C[C@H](O)CC[C@]4(C)[C@H]3C[C@H](O)[C@]12C [DEOXYCHOLIC ACID],Activity,[2],inhibitor [+]
C[C@H](CCC(=O)NCC(=O)O)[C@H]1CC[C@H]2[C@@H]3[C@H](O)C[C@@H]4C[C@H](O)CC[C@]4(C)[C@H]3C[C@H](O)[C@]12C [GLYCOCHOLIC ACID],Activity,[3],inhibitor [+]
C[C@H](CCC(=O)O)[C@H]1CC[C@H]2[C@@H]3CC[C@@H]4C[C@H](O)CC[C@]4(C)[C@H]3CC[C@]12C [LITHOCHOLIC ACID],Activity,[4],inhibitor [+]
